The target in assay [1] is T1, human sphingosine kinase type 2 (hSPHK2) (Homo sapiens, UniProt Q9NRA0).
T1 construct: purchased; host or cells: Sf9 insect cells (baculovirus)
T1 sequence (Q9NRA0 1-654): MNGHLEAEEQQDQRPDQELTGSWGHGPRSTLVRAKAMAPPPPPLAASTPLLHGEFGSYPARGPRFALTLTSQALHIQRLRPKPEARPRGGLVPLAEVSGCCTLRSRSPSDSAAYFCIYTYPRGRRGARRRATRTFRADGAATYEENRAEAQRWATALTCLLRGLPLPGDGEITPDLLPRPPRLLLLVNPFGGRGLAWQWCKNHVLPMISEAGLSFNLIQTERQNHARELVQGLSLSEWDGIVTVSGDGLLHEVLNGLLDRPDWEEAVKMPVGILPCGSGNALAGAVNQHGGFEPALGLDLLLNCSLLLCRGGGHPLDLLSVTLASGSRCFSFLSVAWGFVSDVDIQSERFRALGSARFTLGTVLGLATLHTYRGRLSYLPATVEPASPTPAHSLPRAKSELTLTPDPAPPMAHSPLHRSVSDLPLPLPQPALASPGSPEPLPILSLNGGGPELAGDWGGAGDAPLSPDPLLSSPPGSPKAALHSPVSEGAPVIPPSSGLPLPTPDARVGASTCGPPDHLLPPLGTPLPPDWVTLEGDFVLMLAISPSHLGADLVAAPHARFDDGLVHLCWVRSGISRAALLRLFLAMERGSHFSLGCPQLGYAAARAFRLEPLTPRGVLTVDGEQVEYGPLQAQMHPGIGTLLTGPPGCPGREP
Put plainly: Sphingosine kinase assay, recombinant human SPHK2 ([32P]S1P product, scintillation counting). Format: biochemical. The settings on record: read-out: activity hSPHK2 (range estimate of KI). In short, it runs like this:
(§1)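 Activity read as [32P]S1P bound to cation exchange paper and quantified by scintillation counting, standard kinase protocol. Enzyme sources: human SPHK2 partially purified from baculovirus-infected Sf9 lysates; human SPHK1 as crude cleared Sf9 lysate.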

The target in assay [2] is T2, human sphingosine kinase type 1 (hSPHK1) (Homo sapiens, UniProt Q9NYA1).
T2 construct: made in house; host or cells: Sf9 insect cells (baculovirus)
In words: Sphingosine kinase assay, recombinant human SPHK1 ([32P]S1P product, scintillation counting). Format: biochemical. To be noted: read-out: activity hSPHK1 (range estimate of KI). A digest of the protocol: as §1

Some results are limits rather than exact numbers.

T2 sequence (Q9NYA1 whole entry): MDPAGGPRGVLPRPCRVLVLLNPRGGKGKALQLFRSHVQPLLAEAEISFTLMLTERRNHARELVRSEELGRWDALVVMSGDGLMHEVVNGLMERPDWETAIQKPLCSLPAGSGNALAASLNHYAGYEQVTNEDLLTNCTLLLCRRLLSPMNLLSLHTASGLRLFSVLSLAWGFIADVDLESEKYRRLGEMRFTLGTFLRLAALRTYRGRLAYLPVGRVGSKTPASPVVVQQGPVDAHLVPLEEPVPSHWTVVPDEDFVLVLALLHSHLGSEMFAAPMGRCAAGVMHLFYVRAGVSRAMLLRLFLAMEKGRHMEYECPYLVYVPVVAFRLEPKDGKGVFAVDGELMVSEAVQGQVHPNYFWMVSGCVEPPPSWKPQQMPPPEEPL

Consider `N=C(N)N1CCC[C@H]1c1nc(-c2ccc3cc(O)ccc3c2)no1` [Compound 51A, (S)-amino(2-(3-(6-hydroxynaphthalen-2-yl)-1,2,4-oxadiazol-5-yl)pyrrolidin-1-yl)methaniminium chloride], for which the inhibitory constant (Ki) in assay [1] and in assay [2] was above 10 µM in each case.

With `N=C(N)N1CCC[C@H]1c1nc(-c2ccc3cc(OCc4ccc(Br)cc4)ccc3c2)no1` [Compound 53A, (S)-amino(2-(3-(6-((4-bromobenzyl)oxy)naphthalen-2-yl)-1,2,4-oxadiazol-5-yl)pyrrolidin-1-yl)methaniminium chloride], the inhibition constant Ki (as a rule, the dissociation constant of the complex between target and ligand, obtained from inhibition or displacement) in assay [1] was 1 to 10 µM; in assay [2], above 10 µM.

In the case of `N=C(N)N1CCC[C@H]1c1nc(-c2ccc3cc(OCCc4ccc(C(F)(F)F)cc4)ccc3c2)no1` [Compound 54A, (S)-amino(2-(3-(6-(4-(trifluoromethyl)phenethoxy)naphthalen-2-yl)-1,2,4-oxadiazol-5-yl)pyrrolidin-1-yl)methaniminium chloride], the Ki in assay [1] and in assay [2] was above 10 µM in each case.

With `N=C(N)N1CCC[C@H]1c1nc(-c2ccc3cc(OCCc4ccccc4C(F)(F)F)ccc3c2)no1` [Compound 55A, (S)-amino(2-(3-(6-(2-(trifluoromethyl)phenethoxy)naphthalen-2-yl)-1,2,4-oxadiazol-5-yl)pyrrolidin-1-yl)methaniminium chloride], the Ki in assay [1] and in assay [2] was above 10 µM throughout.

For `COCCCOc1ccc2cc(-c3noc([C@@H]4CCCN4C(=N)N)n3)ccc2c1` [Compound 57A, (S)-amino(2-(3-(6-(3-methoxypropoxy)naphthalen-2-yl)-1,2,4-oxadiazol-5-yl)pyrrolidin-1-yl)methaniminium chloride], the Ki in assay [1] and in assay [2] was above 10 µM throughout.

Consider `N=C(N)N1CCC[C@H]1c1nc(-c2ccc3cc(OCc4cccc(Br)c4)ccc3c2)no1` [Compound 58A, (S)-amino(2-(3-(6-((3-bromobenzyl)oxy)naphthalen-2-yl)-1,2,4-oxadiazol-5-yl)pyrrolidin-1-yl)methaniminium chloride], for which the inhibition constant (Ki) in assay [1] and in assay [2] was above 10 µM in each case.

`N=C(N)N1C[C@H](O)C[C@H]1c1nc(-c2ccc(OCCCc3ccc4c(c3)OCCO4)c(C(F)(F)F)c2)no1` [Compound 59A]: the inhibition constant Ki in assay [1] and in assay [2] was above 10 µM throughout.

Consider `N=C(N)N1CCC[C@H]1c1nc(-c2ccc3cc(OCCc4cccc(C(F)(F)F)c4)ccc3c2)no1` [Compound 60A, (S)-amino(2-(3-(6-(3-(trifluoromethyl)phenethoxy)naphthalen-2-yl)-1,2,4-oxadiazol-5-yl)pyrrolidin-1-yl)methaniminium chloride], for which the Ki in assay [1] and in assay [2] was above 10 µM throughout.

In the case of `CC(C)(C)c1ccc(CCc2ccc(-c3noc([C@@H]4CCCN4C(=N)N)n3)cc2C(F)(F)F)cc1` [Compound 61A], the figures for the Ki in assay [1] and in assay [2] were below 1 µM and above 10 µM, respectively.

Consider `Cc1ccc(COc2ccc3cc(-c4noc([C@@H]5CCCN5C(=N)N)n4)ccc3c2)cc1` [Compound 64A, (S)-amino(2-(3-(6-((4-methylbenzyl)oxy)naphthalen-2-yl)-1,2,4-oxadiazol-5-yl)pyrrolidin-1-yl)methaniminium chloride], for which the inhibition constant Ki in assay [1] and in assay [2] was above 10 µM each time.

For the compound `COCCCCOc1ccc2cc(-c3noc([C@@H]4CCCN4C(=N)N)n3)ccc2c1` [Compound 65A, (S)-amino(2-(3-(6-(4-methoxybutoxy)naphthalen-2-yl)-1,2,4-oxadiazol-5-yl)pyrrolidin-1-yl)methaniminium chloride], the inhibitory constant (Ki) in assay [1] and in assay [2] was above 10 µM throughout.

With `N=C(N)N1CCC[C@H]1c1nc(-c2ccc3cc(OCC4CCCC4)ccc3c2)no1` [Compound 66A, (S)-amino(2-(3-(6-(cyclopentylmethoxy)naphthalen-2-yl)-1,2,4-oxadiazol-5-yl)pyrrolidin-1-yl)methaniminium chloride], the Ki in assay [1] and in assay [2] was above 10 µM each time.
